The test system of assay [1] is intraepidermal nerve fiber of OXA-treated rats. The assay can be described thus: Assessment of density of intraepidermal nerve fiber (PGP9.5 staining). In kind it is in vivo, rat. Particulars: OXA+PC-SOD 1 mg/kg; FIG. 3. How it is done:
Rat epidermis tissue was fixed with a 4% paraformaldehyde fixative and washed with PBS 24 hours later, and a frozen block was prepared. A frozen slice having a thickness of 50 μm was prepared from the prepared block by using Cryostat (CM3050S, Leica Biosystems), and a 0.2% Triton-X solution was added as permeabilization treatment to allow the mixture to react for 10 minutes. Nerve fiber was allowed to react with Anti-PGP9.5 antibody (Ultraclone Ltd.) at 4° C. overnight, then it was washed with PBST, and allowed to react with a secondary fluorescence antibody (Goat anti-Rabbit IgG Alexa Fluor 488, Invitrogen). After the reaction was done at room temperature for one hour, the nerve fiber was washed, rinsed, followed by dropwise addition of […] with DAPI H-1200 (Vector Laboratories), and enclosed, and two to three images of each sample captured at 200-fold magnification were saved (Scale bar=100 μm) by using a fluorescence microscope BZ-X800 (Keyence Corporation).

The test system of assay [2] is L5 DRG neurons of OXA-treated rats. As to the kind of experiment: Assessment of pathological damage to DRG (HE staining). In kind it is in vivo, rat. Particulars: OXA+PC-SOD 1 mg/kg; FIG. 4. The text has this:
A tissue of L5 DRG neuron was collected, stored in a 10% neutral buffered formalin solution, fixed, and then washed with PBS. The tissue was subjected to 70% ethanol substitution to prepare a paraffin block, and the block was thinly sliced and subjected to HE staining. The thickness of the thinly sliced sample block was from 2 to 3 μm. By using the prepared pathological sample slide, one to three images of each sample were captured at 200 and 400-fold magnifications by the optical microscope function of All-in-One Fluorescence Microscope (BZ-X800, Keyence Corporation). Multinucleation of the nucleolus of DRG neurons and abnormal morphology of the nucleolus were assessed as indicators of DRG neuron disorder (Scale bar=50 μm).

Assay [3] deals with peripheral blood cells of CIS-treated rats. As to the kind of experiment: Assessment of myelosuppression caused by cisplatin (peripheral blood cell count). In kind it is in vivo, rat. The following applies: CIS 3 mg/kg i.p. 8 doses, PC-SOD 1 mg/kg caudal vein, FIG. 14. How it is done:
Six to eight-week-old male SD rats (from 200 to 400 g) were used. […] A total of eight doses were given with a regimen of twice weekly for four weeks (Days 1, 2, 7, 8, 13, 14, 19, and 20). A solvent for CIS, i.e., physiological saline, was similarly administered to a control group. […] Laboratory animals were divided into three groups: a control group, a CIS administration group, and a group receiving administration of CIS and PC-SOD 1 mg/kg (CIS+PC-SOD administration group) (n=6 per group). For an experiment of prevention, PC-SOD was administered into the caudal vein from five to 15 minutes after CIS administration in the CIS+PC-SOD administration group. A total of eight doses were given with a regimen of twice weekly for four weeks, (Days 1, 2, 7, 8, 13, 14, 19, and 20). A solvent for PC-SOD was similarly administered to the control group and the CIS administration group. Peripheral blood was collected from the rat caudal vein three days later, and peripheral blood was analyzed by using an automated blood cell counter (MEK-6458, Nihon Kohden Corporation).

The test system of assay [4] is liver of OXA-treated rats. As to the kind of experiment: Pathological assessment of liver disorder caused by oxaliplatin (HE staining). In kind it is in vivo, rat. Particulars: PC-SOD 1 mg/kg, mangafodipir dose not given, FIG. 5. The text has this: A liver tissue was collected and fixed with 10% neutral buffered formalin to prepare a paraffin block by using Histos 5 (Milestone) and an embedding center (EG1160, Leica). The sample block was thinly sliced at a thickness of 3 μm by using a microtome (MR2245, Leica) to prepare a slide. The prepared slide was stained by HE staining, enclosed, and observed at 200 and 400-fold magnifications by using the optical microscope function of All-in-One Fluorescence Microscope (BZ-X800, Keyence Corporation). Observation and assessment were performed by observing the whole section. Two to four representative tissue images were randomly taken up, and alteration in the tissue structure, such as inflammation and necrosis, was observed and assessed (Scale bar=200 μm).

Assay [5] deals with RAW cells. The assay can be described thus: Toxicity of anticancer agents against RAW cells (CellTiter-Glo viable cell count). In kind it is cell-based. Particulars: gemcitabine, oxaliplatin, cisplatin or carboplatin with simultaneous PC-SOD, 24 hours; FIG. 12-2. How it is done:
RAW cells were seeded on a 96-well plate at 20 000 cells/well (D-MEM high glucose medium containing 10% inactivated FBS). […] The number of viable cells was counted 24 hours later by measuring chemical luminescence by using CellTiter-Glo™ 2.0 Cell Viability Assay (Promega) and a plate reader (Tecan, Infinite M Plex). Cells for four wells were analyzed for each group.
A general note: In ATP-based viability assays light output follows the ATP content of the culture.

The test system of assay [6] is oxaliplatin-induced allodynia model rats. The assay can be described thus: Von Frey test in oxaliplatin-induced allodynia model rats. It is filed as in vivo, rat. Particulars: OXA 4 mg/kg i.p. 8 doses, prophylactic, FIG. 1. How it is done: Six to eight-week-old male SD rats (from 200 to 400 g) were used, and oxaliplatin (hereinafter may be abbreviated as OXA) was administered into the peritoneal cavity of rats at a dose of 4 mg/kg. A total of eight doses were given with a regimen of twice weekly for four weeks (Days 1, 2, 7, 8, 13, 14, 19, and 20). A solvent for OXA, i.e., a 5% glucose solution, was similarly administered to a control group. Elplat I.V. Infusion Solution 100 mg (Yakult Honsha Co., Ltd.) was used as OXA.
Laboratory animals were divided into five groups: a control group, an OXA administration group, and groups each receiving administration of OXA and PC-SOD 0.1, 0.3, or 1 mg/kg (OXA+PC-SOD administration groups) (n=8 per group). In an experiment of prevention, PC-SOD was administered into the caudal vein from 5 to 15 minutes after administration of OXA in the OXA+PC-SOD administration group. […]
Data were expressed with mean±standard error (SEM). Statistical processing of the results was performed by Student's t test for comparison of two groups and ANOVA one way test (post-hoc Tukey's test) for comparison of three or more groups, and a statistically significant difference was determined when the hazard ratio was 5% or lower (*, **, and *** in the figures: p<0.05, p<0.01, and p<0.001, respectively).

As for “lecithinized superoxide dismutase [PC-SOD]”, the “decrease in density of intraepidermal nerve fiber caused by OXA” value in assay [1] was “a suppressive effect on the decrease in density of intraepidermal nerve fiber caused by OXA was observed”. Moreover, the “pathological damage to DRG caused by OXA (multinucleation and abnormal morphology of nucleoli)” value in assay [2] was “a suppressive effect on pathological damage to DRG caused by OXA was shown”. The “decrease in platelets (PLTs) caused by CIS” value in assay [3] was “decreases in WBCs and PLTs were suppressed”. For the same substance, in assay [3], the “decrease in white blood cells (WBCs) caused by CIS” value is “decreases in WBCs and PLTs were suppressed”. The “necrosis of liver cells caused by OXA” value in assay [4] is “a suppressive effect on necrosis of liver cells caused by OXA was shown”. Also, the “anticancer agent-dependent decrease in number of viable RAW cells” value in assay [5] is listed as “significantly suppressed the anticancer agent-dependent decreases in the number of viable cells dependently on the concentration of PC-SOD”. The “decrease in pain sensation threshold caused by OXA (von Frey test)” value in assay [6] (PC-SOD 1 mg/kg caudal vein) is “significantly suppressed”; in assay [6] (PC-SOD 0.1, 0.3 and 1 mg/kg caudal vein), “suppressed by PC-SOD in a concentration-dependent manner”.
